Data: paper PMC10066365, “Nemacol is a small molecule inhibitor of C. elegans vesicular acetylcholine transporter with anthelmintic potential” (Nature Communications, 2023)
Values joined by “and” are separate entries in the source; they are usually repeats but may differ in a detail not shown here. Identical values can stand only once. Like-named read-outs stand apart in the source and are kept apart here.

Key:
[1] = test system: Dirofilaria immitis microfilariae; assay: Dirofilaria immitis microfilariae immobility assay (DiroImager, 72 h); details: Dirofilaria immitis microfilariae
In short: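 About 250 freshly purified microfilariae of the Missouri isolate per well in supplemented RPMI 1640, exposed to compound for 72 h. Motility scored by automated whole-plate optical imaging; medium with 1% DMSO as negative control.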

[2] = target: T1, rat VAChT (Rattus norvegicus, UniProt Q62666); assay: [3H]Vesamicol competitive radioligand binding, PC12 cells expressing ratVAChT
T1 construct: expressed in transfected cells; host or cells: rat PC12 (PC12 A123.7) cells, stably transfected; shared by Dr. Ali Roghani (Texas Tech University)
T1 sequence (Q62666 1-530): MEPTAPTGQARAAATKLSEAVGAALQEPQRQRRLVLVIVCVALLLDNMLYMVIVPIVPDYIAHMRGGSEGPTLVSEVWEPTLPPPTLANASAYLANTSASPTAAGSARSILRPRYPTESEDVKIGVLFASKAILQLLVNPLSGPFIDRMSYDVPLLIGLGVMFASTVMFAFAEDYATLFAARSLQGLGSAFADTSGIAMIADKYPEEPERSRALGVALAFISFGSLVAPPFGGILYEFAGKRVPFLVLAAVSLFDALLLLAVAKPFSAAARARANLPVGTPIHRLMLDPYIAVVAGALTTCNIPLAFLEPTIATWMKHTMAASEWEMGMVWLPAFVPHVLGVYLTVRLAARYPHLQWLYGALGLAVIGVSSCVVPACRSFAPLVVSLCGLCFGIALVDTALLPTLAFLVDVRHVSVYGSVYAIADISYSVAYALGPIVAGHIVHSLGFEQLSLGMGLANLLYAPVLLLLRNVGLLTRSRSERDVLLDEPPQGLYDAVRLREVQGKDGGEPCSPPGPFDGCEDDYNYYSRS

[3] = test system: Dirofilaria immitis L3/L4; assay: Dirofilaria immitis L3/L4 motility assay (DiroImager, 72 h); details: Dirofilaria immitis L4
[4] = test system: Pristionchus pacificus; assay: Pristionchus pacificus motor disruption dose-response on solid media, 1 h; details: for mean % any phene (coiled, jerky-Unc or paralyzed): Pristionchus pacificus young adults; for mean % any phene (coiled, jerky-Unc or paralyzed) / mean % any phene: mean of three biological replicates; for EC50: Pristionchus pacificus, 1 h, read-out: P. pacificus motor disruption EC50; for rep 1 atypical locomotion / rep 1 coiled / rep 1 no phene / rep 1 paralyzed / rep 2 atypical locomotion / rep 2 coiled / rep 2 no phene / rep 2 paralyzed / rep 3 atypical locomotion / rep 3 coiled / rep 3 no phene / rep 3 paralyzed: count of 20 animals per trial, one hour; for mean % any phene: any phenotype (coiled, jerky-Unc or paralyzed) at one hour
[5] = test system: C. elegans; assay: C. elegans motor phenotype scoring on solid media (Punc/jerky-unc, coiled, paralyzed), wild-type young adults; type: in vivo, Caenorhabditis elegans; details: for any phene (mean % fraction of young adults exhibiting any phenotype: coiled, jerky-Unc or paralyzed) / atypical locomotion (number of animals) / coiled (number of animals) / no phene (number of animals) / paralyzed (number of animals) / any phene: mean % fraction of young adults exhibiting any phenotype (coiled, jerky-Unc or paralyzed): one hour; for any phene (mean % fraction of young adults exhibiting any phenotype: coiled, jerky-Unc or paralyzed) / any phene: mean % fraction of young adults exhibiting any phenotype (coiled, jerky-Unc or paralyzed): mean of three biological replicates; for EC50: Caenorhabditis elegans, any motor phenotype after 1 h on solid media, ± 95% CI, read-out: C. elegans - motor disruption EC50; for atypical locomotion (number of animals) / coiled (number of animals) / no phene (number of animals) / paralyzed (number of animals): young adults, 20 animals per trial, single technical replicate
[6] = [3H]Vesamicol binding, PC12, experiment 1, read-out: expt 1 Ki (M) vs. rat VAChT (PC12)
[7] = [3H]Vesamicol binding, PC12, experiment 2, read-out: expt 2 Ki (M) vs. rat VAChT (PC12)
[8] = [3H]Vesamicol binding, rat VAChT (PC12), mean of 2-3 experiments, read-out: mean Ki
[9] = conc 3.75, observed at one hour
[10] = 3.75uM, third c14 line of each analog
[11] = 15uM, second c14 line of each analog
[12] = 60uM, first c14 line of each analog

SMILES: Cc1ccc(N2CCN(C3CCC(C)C3)CC2)cc1 (centres unmarked) [Nemacol-41]
- % effect (motility), DIROIM MF ([1]; 0.016 µM): 0%
- % effect (motility), DIROIM MF ([1]; 0.08 µM): 0%
- % effect (motility), DIROIM MF ([1]; 0.4 µM): 0%
- % effect (motility), DIROIM MF ([1]; 2 µM): 0%
- % effect (motility), DIROIM MF ([1]; 10 µM): 0%
- Ki [2, 6]: 4.82e-07 M
- Ki [2, 7]: 3.76e-07 M
- Ki [2, 8]: 4.29e-07 M
- % effect (motility), DIROIM L4 ([3]; 2 µM): 5%
- % effect (motility), DIROIM L4 ([3]; 10 µM): 5%
- % effect (motility), DIROIM L4 ([3]; 50 µM): 20%
- mean % any phene (coiled, jerky-Unc or paralyzed) [4, 9]: 9.167%
- mean % any phene (coiled, jerky-Unc or paralyzed) ([4]; conc 15, observed at one hour): 67.5%
- mean % any phene (coiled, jerky-Unc or paralyzed) ([4]; conc 60, observed at one hour): 100%
- EC50 [4]: 10.7 ± 1.2 µM
- any phene (mean % fraction of young adults exhibiting any phenotype: coiled, jerky-Unc or paralyzed) [5, 10]: 58.3333%
- any phene (mean % fraction of young adults exhibiting any phenotype: coiled, jerky-Unc or paralyzed) [5, 11]: 98.3333%
- any phene (mean % fraction of young adults exhibiting any phenotype: coiled, jerky-Unc or paralyzed) [5, 12]: 100%
- EC50 [5]: 3.3 ± 1.4 µM

SMILES: Cc1ccc(N2CCN(CC3CC4C=CC3C4)CC2)cc1 (centres unmarked) [Nemacol-43]
- % effect (motility), DIROIM MF ([1]; 0.016 µM): 0%
- % effect (motility), DIROIM MF ([1]; 0.08 µM): 0%
- % effect (motility), DIROIM MF ([1]; 0.4 µM): 0%
- % effect (motility), DIROIM MF ([1]; 2 µM): 0%
- % effect (motility), DIROIM MF ([1]; 10 µM): 0%
- Ki [2, 6]: 1.91e-07 M
- Ki [2, 7]: 1.26e-07 M
- Ki [2, 8]: 1.59e-07 M
- % effect (motility), DIROIM L4 ([3]; 2 µM): 6%
- % effect (motility), DIROIM L4 ([3]; 10 µM): 5%
- % effect (motility), DIROIM L4 ([3]; 50 µM): 20%
- mean % any phene (coiled, jerky-Unc or paralyzed) [4, 9]: 0%
- mean % any phene (coiled, jerky-Unc or paralyzed) ([4]; conc 15, observed at one hour): 20.8333%
- mean % any phene (coiled, jerky-Unc or paralyzed) ([4]; conc 60, observed at one hour): 76.4035%
- EC50 [4]: 31.5 ± 4.9 µM
- any phene (mean % fraction of young adults exhibiting any phenotype: coiled, jerky-Unc or paralyzed) [5, 10]: 33.7698%
- any phene (mean % fraction of young adults exhibiting any phenotype: coiled, jerky-Unc or paralyzed) [5, 11]: 100%
- any phene (mean % fraction of young adults exhibiting any phenotype: coiled, jerky-Unc or paralyzed) [5, 12]: 100%
- EC50 [5]: 3.9 µM

SMILES: Clc1ccc(N2CCN(CC3CC4C=CC3C4)CC2)cc1 (centres unmarked) [Nemacol-46]
- % effect (motility), DIROIM MF ([1]; 0.016 µM): 0%
- % effect (motility), DIROIM MF ([1]; 0.08 µM): 0%
- % effect (motility), DIROIM MF ([1]; 0.4 µM): 0%
- % effect (motility), DIROIM MF ([1]; 2 µM): 0%
- % effect (motility), DIROIM MF ([1]; 10 µM): 0%
- Ki [2, 6]: 9.16e-08 M
- Ki [2, 7]: 7.54e-08 M
- Ki [2, 8]: 8.35e-08 M
- % effect (motility), DIROIM L4 ([3]; 2 µM): 0%
- % effect (motility), DIROIM L4 ([3]; 10 µM): 5%
- % effect (motility), DIROIM L4 ([3]; 50 µM): 25%
- mean % any phene (coiled, jerky-Unc or paralyzed) [4, 9]: 41.6667%
- mean % any phene (coiled, jerky-Unc or paralyzed) ([4]; conc 15, observed at one hour): 58.3333%
- mean % any phene (coiled, jerky-Unc or paralyzed) ([4]; conc 60, observed at one hour): 84.1667%
- EC50 [4]: 7 ± 2.4 µM
- rep 1 atypical locomotion ([4]; conc 3.75): 0
- rep 1 coiled ([4]; conc 3.75): 0
- rep 1 no phene ([4]; conc 3.75): 20
- rep 1 paralyzed ([4]; conc 3.75): 0
- rep 2 atypical locomotion ([4]; conc 3.75): 4
- rep 2 coiled ([4]; conc 3.75): 0
- rep 2 no phene ([4]; conc 3.75): 16
- rep 2 paralyzed ([4]; conc 3.75): 0
- rep 1 atypical locomotion ([4]; conc 15): 11
- rep 1 coiled ([4]; conc 15): 4
- rep 1 no phene ([4]; conc 15): 4
- rep 1 paralyzed ([4]; conc 15): 1
- rep 2 atypical locomotion ([4]; conc 15): 0
- rep 2 coiled ([4]; conc 15): 8
- rep 2 no phene ([4]; conc 15): 0
- rep 2 paralyzed ([4]; conc 15): 12
- rep 1 atypical locomotion ([4]; conc 60): 4
- rep 1 coiled ([4]; conc 60): 6
- rep 1 no phene ([4]; conc 60): 0
- rep 1 paralyzed ([4]; conc 60): 10
- rep 2 atypical locomotion ([4]; conc 60): 0
- rep 2 coiled ([4]; conc 60): 8
- rep 2 no phene ([4]; conc 60): 0
- rep 2 paralyzed ([4]; conc 60): 12
- any phene (mean % fraction of young adults exhibiting any phenotype: coiled, jerky-Unc or paralyzed) [5, 10]: 89.1667%
- EC50 [5]: 2.3 µM

SMILES: CC1CCC(N2CCN(c3ccccc3)CC2)CC1 (centres unmarked) [Nemacol-50]
- % effect (motility), DIROIM MF ([1]; 0.016 µM): 0%
- % effect (motility), DIROIM MF ([1]; 0.08 µM): 0%
- % effect (motility), DIROIM MF ([1]; 0.4 µM): 0%
- % effect (motility), DIROIM MF ([1]; 2 µM): 0%
- % effect (motility), DIROIM MF ([1]; 10 µM): 0%
- Ki [2, 6]: 1.82e-06 M
- Ki [2, 7]: 2.05e-06 M
- Ki ([2]; [3H]Vesamicol binding, PC12, third experiment column (date expt 3), read-out: expt 2 Ki (M) vs. rat VAChT (PC12)): 1.95e-06 M
- Ki [2, 8]: 1.94e-06 M
- Ki ([2]; [3H]Vesamicol displacement, mean, read-out: ratVAChT Ki): 1.94e-06 M
- % effect (motility), DIROIM L4 ([3]; 2 µM): 0%
- % effect (motility), DIROIM L4 ([3]; 10 µM): 0%
- % effect (motility), DIROIM L4 ([3]; 50 µM): 5%
- EC50 [4]: 49.2 µM
- mean % any phene ([4]; conc 3.75): 0%
- rep 1 atypical locomotion ([4]; conc 3.75): 0
- rep 1 coiled ([4]; conc 3.75): 0
- rep 1 no phene ([4]; conc 3.75): 20
- rep 1 paralyzed ([4]; conc 3.75): 0
- rep 2 atypical locomotion ([4]; conc 3.75): 0
- rep 2 coiled ([4]; conc 3.75): 0
- rep 2 no phene ([4]; conc 3.75): 20
- rep 2 paralyzed ([4]; conc 3.75): 0
- rep 3 atypical locomotion ([4]; conc 3.75): 0
- rep 3 coiled ([4]; conc 3.75): 0
- rep 3 no phene ([4]; conc 3.75): 20
- rep 3 paralyzed ([4]; conc 3.75): 0
- mean % any phene ([4]; conc 15): 0%
- rep 1 atypical locomotion ([4]; conc 15): 0
- rep 1 coiled ([4]; conc 15): 0
- rep 1 no phene ([4]; conc 15): 20
- rep 1 paralyzed ([4]; conc 15): 0
- rep 2 atypical locomotion ([4]; conc 15): 0
- rep 2 coiled ([4]; conc 15): 0
- rep 2 no phene ([4]; conc 15): 20
- rep 2 paralyzed ([4]; conc 15): 0
- rep 3 atypical locomotion ([4]; conc 15): 0
- rep 3 coiled ([4]; conc 15): 0
- rep 3 no phene ([4]; conc 15): 20
- rep 3 paralyzed ([4]; conc 15): 0
- mean % any phene ([4]; conc 60): 98.3333%
- rep 1 atypical locomotion ([4]; conc 60): 9 and 5
- rep 1 coiled ([4]; conc 60): 4 and 2
- rep 1 no phene ([4]; conc 60): 0
- rep 1 paralyzed ([4]; conc 60): 7 and 13
- rep 2 atypical locomotion ([4]; conc 60): 7 and 10
- rep 2 coiled ([4]; conc 60): 4 and 2
- rep 2 no phene ([4]; conc 60): 0
- rep 2 paralyzed ([4]; conc 60): 9 and 8
- rep 3 atypical locomotion ([4]; conc 60): 11 and 13
- rep 3 paralyzed ([4]; conc 60): 6 and 4
- atypical locomotion (number of animals) ([5]; 3.75uM): 8 and 14 and 7 and 18 and 16
- coiled (number of animals) ([5]; 3.75uM): 0 and 1
- no phene (number of animals) ([5]; 3.75uM): 11 and 5 and 12 and 13 and 2 and 4
- paralyzed (number of animals) ([5]; 3.75uM): 1 and 0
- any phene: mean % fraction of young adults exhibiting any phenotype (coiled, jerky-Unc or paralyzed) ([5]; 3.75uM): 60.8333%
- atypical locomotion (number of animals) ([5]; 15uM): 10 and 12 and 11 and 17 and 7 and 5
- coiled (number of animals) ([5]; 15uM): 1 and 0 and 7 and 3 and 4
- no phene (number of animals) ([5]; 15uM): 2 and 0
- paralyzed (number of animals) ([5]; 15uM): 7 and 8 and 0 and 9 and 12
- any phene: mean % fraction of young adults exhibiting any phenotype (coiled, jerky-Unc or paralyzed) ([5]; 15uM): 96.6667%
- atypical locomotion (number of animals) ([5]; 60uM): 1 and 3 and 0 and 6 and 5 and 2
- coiled (number of animals) ([5]; 60uM): 8 and 11 and 14 and 5 and 6
- no phene (number of animals) ([5]; 60uM): 1 and 0
- paralyzed (number of animals) ([5]; 60uM): 10 and 6 and 12
- any phene: mean % fraction of young adults exhibiting any phenotype (coiled, jerky-Unc or paralyzed) ([5]; 60uM): 99.1667%
- EC50 [5]: 3 ± 1.3 µM
